This passage reports TGI and GI50 results from PubChem BioAssay (NCI).

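Values below derive from 48-hour exposures of cells grown in 96-well plates, with endpoints linearly interpolated between the two concentrations bracketing the appropriate inhibition level. At the GI50, growth is halved. TGI: total growth inhibition.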

Some test systems named below: CCRF-CEM leukemia; K-562 leukemia; M14 melanoma; MALME-3M melanoma; NCI-H226 lung; SF-295 CNS; SK-OV-3 ovarian; SR leukemia; U251 CNS; UACC-62 melanoma.
Common to all, as to experiment: growth of human tumour cells (NCI), 48 h

For `CS(=O)(=O)CC(=O)c1ccccc1`, the TGI with CCRF-CEM leukemia, in the test with K-562 leukemia, in the test with M14 melanoma, in the test on MALME-3M melanoma, with NCI-H226 lung and in the test on SF-295 CNS was above 100 µM in each case. The TGI in the test on SK-OV-3 ovarian, in the test with SR leukemia, in the test with U251 CNS and in the test with UACC-62 melanoma was above 100 µM each time.
Take `COc1ccc(/C=C2\C=C(c3ccccc3)N(CCc3ccccc3)C2=O)cc1OC`: the GI50 in the test with CCRF-CEM leukemia was 35.9 µM; in the test with K-562 leukemia, 23.9 µM; with M14 melanoma, 8.84 µM; in the test on MALME-3M melanoma, 10.2 µM; in the test on NCI-H226 lung, 4.6 µM; in the test with SF-295 CNS, 5.95 µM. For the same compound, the GI50 in the test with SK-OV-3 ovarian is 4.04 µM; with SR leukemia, 11.1 µM; with U251 CNS it was 3.2 µM; in the test with UACC-62 melanoma it was 6.01 µM. For the same compound, the TGI was above 100 µM with CCRF-CEM leukemia; above 100 µM in the test on K-562 leukemia; above 100 µM in the test with M14 melanoma; 61.9 µM in the test on MALME-3M melanoma; 30.2 µM in the test on NCI-H226 lung; 24 µM in the test with SF-295 CNS. For the same compound, the TGI in the test with SK-OV-3 ovarian is 18.8 µM; in the test with SR leukemia, 57.7 µM; in the test with U251 CNS, 9.31 µM; in the test with UACC-62 melanoma, 40.9 µM.
Regarding `Clc1ccc(OCc2nnc3n2N=C(c2ccc(Cl)cc2Cl)CS3)cc1`, the GI50 was 21.1 µM in the test with CCRF-CEM leukemia; 32.5 µM with K-562 leukemia; 16.4 µM in the test on M14 melanoma; 19.8 µM with MALME-3M melanoma; 17.3 µM in the test with NCI-H226 lung; 13.7 µM with SF-295 CNS. Moreover, the GI50 was 42.8 µM in the test with SK-OV-3 ovarian, 19.4 µM in the test with SR leukemia, 19.5 µM in the test on U251 CNS and 14 µM in the test on UACC-62 melanoma. Moreover, the TGI in the test with CCRF-CEM leukemia was 68.1 µM; in the test on K-562 leukemia, above 100 µM; in the test on M14 melanoma, 36.3 µM; in the test on MALME-3M melanoma, 58.6 µM; in the test with NCI-H226 lung, 38.9 µM; with SF-295 CNS it was 44.2 µM. Further, the TGI was above 100 µM in the test with SK-OV-3 ovarian, 52.9 µM in the test with SR leukemia, 41.8 µM in the test with U251 CNS and 31.4 µM in the test on UACC-62 melanoma.
For the compound `NCOC(=O)Cc1ccc(Br)cc1`, the TGI in the test with CCRF-CEM leukemia, in the test with K-562 leukemia, in the test with M14 melanoma, with MALME-3M melanoma, with NCI-H226 lung and in the test on SF-295 CNS was above 100 µM throughout. For the same compound, the TGI with SK-OV-3 ovarian, with SR leukemia, with U251 CNS and with UACC-62 melanoma was above 100 µM throughout.
`O=C1c2cccc(NCCN=Cc3ccccc3O)c2C(=O)c2c(NCCN=Cc3ccccc3O)cccc21`: the GI50 was 1.02 µM with CCRF-CEM leukemia; 0.406 µM in the test with K-562 leukemia; 1.88 µM in the test with M14 melanoma; 1.01 µM with MALME-3M melanoma; 0.571 µM in the test with NCI-H226 lung; 0.409 µM in the test on SF-295 CNS. Moreover, the GI50 in the test on SK-OV-3 ovarian is 1.5 µM; in the test on SR leukemia it was 0.363 µM; in the test with U251 CNS it was 0.521 µM; in the test on UACC-62 melanoma, 1.59 µM. Moreover, the TGI in the test with CCRF-CEM leukemia turned out to be 4.24 µM; with K-562 leukemia it was 5.14 µM; in the test with M14 melanoma, 5.63 µM; in the test with MALME-3M melanoma, 2.86 µM; in the test on NCI-H226 lung it was 6 µM; with SF-295 CNS it was 1.88 µM. For the same compound, the TGI is 4.99 µM with SK-OV-3 ovarian, 4.62 µM in the test with U251 CNS and 4.86 µM in the test with UACC-62 melanoma.
For `O=c1ssc(Cl)c1Cl`, the TGI in the test on CCRF-CEM leukemia is 5.25 µM; in the test on K-562 leukemia it was 9.04 µM; in the test on M14 melanoma, above 10 µM; with MALME-3M melanoma, 9.77 µM; with NCI-H226 lung, above 10 µM; in the test with SF-295 CNS it was above 10 µM. Also, the TGI in the test with SK-OV-3 ovarian, with SR leukemia, in the test with U251 CNS and in the test on UACC-62 melanoma was above 10 µM in each case.
In the case of `O=C(/C(=C\c1ccc(Cl)cc1)c1ccccc1)c1ccccc1`, the TGI with CCRF-CEM leukemia, in the test on K-562 leukemia, with M14 melanoma, in the test with MALME-3M melanoma, in the test with NCI-H226 lung and in the test on SF-295 CNS was above 100 µM each time. Further, the TGI in the test on SK-OV-3 ovarian, in the test on SR leukemia, in the test with U251 CNS and with UACC-62 melanoma was above 100 µM each time.
Regarding `Cn1c(/C=C/[N+](=O)[O-])cc2ccccc21`, the GI50 in the test with CCRF-CEM leukemia was 16.9 µM; with K-562 leukemia, 2.9 µM; with M14 melanoma, 1.77 µM; in the test with MALME-3M melanoma, 11.1 µM; with NCI-H226 lung, 4.23 µM; with SF-295 CNS it was 5.84 µM. Moreover, the GI50 was 13.2 µM in the test with SK-OV-3 ovarian, 2.16 µM in the test with SR leukemia, 1.73 µM in the test with U251 CNS and 11.4 µM in the test on UACC-62 melanoma. Further, the TGI with CCRF-CEM leukemia is above 100 µM; in the test on K-562 leukemia it was above 100 µM; with M14 melanoma, 3.56 µM; with MALME-3M melanoma, 25.9 µM; with NCI-H226 lung it was 21 µM; with SF-295 CNS it was above 100 µM. Further, the TGI amounted to 26.3 µM with SK-OV-3 ovarian, 8.06 µM in the test with SR leukemia, 3.75 µM in the test on U251 CNS and 31 µM in the test with UACC-62 melanoma.
Turning to `COc1cc(C(=O)Nc2cc(OC)c3ccn(C)c3c2)cc2c1C[C@]1(C)CC[C@@H](O)C(C)(C)[C@H]1O2`, the GI50 with CCRF-CEM leukemia is 0.0927 µM; with K-562 leukemia, 0.597 µM; with M14 melanoma, 0.454 µM; in the test with MALME-3M melanoma it was 2.74 µM; with NCI-H226 lung it was 7.69 µM; with SF-295 CNS, 0.0302 µM. Besides, the GI50 in the test with SK-OV-3 ovarian is 0.58 µM; in the test with SR leukemia it was 0.0837 µM; in the test on U251 CNS, 0.0978 µM; with UACC-62 melanoma it was 0.257 µM. The TGI is above 100 µM in the test with CCRF-CEM leukemia; above 100 µM with K-562 leukemia; 2.9 µM in the test on M14 melanoma; above 100 µM in the test on MALME-3M melanoma; above 100 µM with NCI-H226 lung; 0.143 µM with SF-295 CNS. Further, the TGI in the test with SK-OV-3 ovarian is 5.11 µM; in the test on SR leukemia it was above 100 µM; in the test with U251 CNS, 15.3 µM; in the test on UACC-62 melanoma it was 1.31 µM.
